A short description of data set [1]: Same clinical study: adverse events and tolerability. It counts as in vivo, humans. From the text: (§1) The Study objective was to assess safety and efficacy of pre-treatment with Tazarotene 0.1% gel and UVB phototherapy in comparison with the Tazarotene vehicle (placebo) and UVB phototherapy and UVB phototherapy, alone, for 10 weeks. During UVB phototherapy, topical agents were applied three times weekly to the target lesion by the phototherapy nurse. The study was a multicenter, investigator-masked study including 60 subjects and 120 target lesions. During the two-week pre-UVB phototherapy period the patients were randomly assigned to receive two of the following treatments: Tazarotene 0.1% gel once a day; vehicle gel once a day; or no treatment. The topical agents were applied once daily. Prior to UVB therapy, the minimal erythemal dose (MED) was assessed using a range of 20 mJoules/cm^2 up to 100 mJoules/cm^2. Initial starting UVB dose is 25% of MED. If MED is immeasurable, starting dose is 25 mJoules/cm^2. During the ten-week UVB phototherapy period the patients were treated with UVB therapy three times a week and topical therapy three times weekly (0.1% Tazarotene gel, vehicle gel, or no treatment) administered by the phototherapy nurse after UVB exposure. Study population was as follows: male or non-reproductive female; 18 years or older; stable plaque psoriasis; two bilaterally symmetrical plaques accessible to phototherapy; not exceeding 50% of TBS; baseline plaque elevation of at least four (moderate, in 0-8 scoring system); no oral retinoid within two months; no excessive vitamin A intake; no oral psoriatic therapy (other than retinoid) or PUVA within one month; no UVB within two weeks; no significant systemic disease or immunosuppression. The UVB exposure was increased until either improvement in psoriasis was noted or MED was reached. If one target lesion reached MED earlier than the other, a photo-opaque covering was applied to the former so the latter site could still be treated with a higher dose of UVB irradiation. If both target lesions cleared, UVB was discontinued. […] The following evaluation criteria was used: • Efficacy Variable • Plaque elevation, scaling, erythema: • Grading Scale • 0 = none, 2= mild, 4=moderate, 6=severe, 8=very severe (with whole-point increments (1, 3, 5, 7) serving as mid-points) • Global response to treatment • Total cumulative UVB exposure (mJoules/cm^2)
The following adverse events were reported during the study: […]

Another data set relates to stable plaque psoriasis. Put plainly: Clinical study of Tazarotene 0.1% gel plus UVB phototherapy versus vehicle plus UVB or UVB alone: efficacy on target lesions. It counts as in vivo, humans.
Text: as §1
Treatment success is defined as moderate response or better.

[2] abbreviates: adverse events reported during the study (count), with UVB phototherapy.

Each structure is given as a SMILES string.

In data set [1] (setting [2]), `CCOC(=O)c1ccc(C#Cc2ccc3c(c2)C(C)(C)CCS3)nc1` [Tazarotene] showed a Burning sensation of 1, an Itching of 1, a Lesional irritation of 0 and a Perilesional irritation of 2. In data set [1] (setting [2]), this molecule registered a Perilesional tenderness of 0. For the same molecule, the “severity of adverse events” value in data set [1] (all reported adverse events) was “mild”. In the data set with stable plaque psoriasis (Figure 1, Tazarotene plus UVB compared with UVB treatment alone), the reduction in plaque result is given as “more effective”. Also, the reduction in scaling entry with stable plaque psoriasis (Figure 2, Tazarotene plus UVB compared with UVB treatment alone) is given as “more effective”. The reduction in erythema result with stable plaque psoriasis (Figure 3, Tazarotene plus UVB compared with UVB treatment alone) is listed as “more effective”. In addition, the treatment success rate in the data set with stable plaque psoriasis (Figure 4, Tazarotene and UVB phototherapy, by day 81, success = moderate response or better) is reported as 100%. Moreover, in the data set with stable plaque psoriasis (Figure 5, Tazarotene and UVB compared with UVB alone or UVB with vehicle (placebo)), the reductions in plaque entry is recorded as “greater”. Besides, the reductions in scaling entry with stable plaque psoriasis (Figure 6, Tazarotene and UVB compared with UVB alone or UVB with vehicle (placebo)) is listed as “greater”. Further, the reductions in erythema entry with stable plaque psoriasis (Figure 7, Tazarotene and UVB compared with UVB alone or UVB with vehicle (placebo)) is “greater”. The success rate with stable plaque psoriasis (Figure 8, Tazarotene and UVB treatment, at 81 days) is on record as 100%. In addition, the success result in the data set on stable plaque psoriasis (Figure 8, Tazarotene and UVB, at day 53) is given as “about 90%”. The “time to reach treatment success” value with stable plaque psoriasis (Tazarotene and UVB compared with vehicle and UVB) is recorded as “more quickly”. Besides, the “overall effectiveness in treating psoriasis” value in the data set with stable plaque psoriasis (Tazarotene and UVB compared with vehicle and UVB or UVB alone) is “more effective”.

The values above are taken from patent EP1001770B1, “TAZAROTENE AND UVB PHOTOTHERAPY TREATMENT FOR PSORIASIS” (ALLERGAN, INC., priority 1997, dated 1998).
